Consider 34 compounds from US9714239B2, “N-phenyl-lactam derivatives capable of stimulating neurogenesis and their use in the treatment of neurological disorders” (Hoffmann-La Roche Inc., priority 2014, dated 2017).

This experiment has as its system human embryonic stem cell derived neural stem cells (NSCs). Description: Neurogenesis assay: neural stem cell proliferation assay. As to conditions: 96 h, compound concentration at which 150% activity of control (100%) is reached, increase in cells based on ATP levels (CellTiterGlo), 4 days incubation, dose response 8 μM to 8 nM. The protocol: Neural Stem Cell Proliferation Assay
Neurogenic properties of small molecules are determined based on the proliferation of human embryonic stem cell derived neural stem cells (NSCs) which were derived via a dual smad inhibition as previously described (Chambers, S. M., et al., Highly efficient neural conversion of human ES and iPS cells by dual inhibition of SMAD signaling, Nature biotechnology, 2009 27(3): p. 275-80.).
Compounds response is measured by the increase in cells based on ATP levels (Promega:CellTiterGlo®) after an incubation period of 4 days. NSCs are thawed and expanded over 3 passages. On the 14th day, NSCs are seeded in Polyornithin/Laminin coated 384 well plates at a cell density of 21,000 cells/cm^2 in a media volume of 38 μl.
4 hours after cell seeding, compound solutions are added at a volume of 2 μl. Stock solutions of the compounds (water, 5% DMSO) are diluted to obtain a dose response (11 points, dilution factor is 2), ranging from 8 μM to 8 nM. Controls are run to consistently determine the neurogenic properties of the cells:
Negative (neutral) control is cell culture Media (final DMSO concentration: 0.25%).
1. cell culture Media+100 ng/ml FGF2 (final DMSO concentration: 0.1%)
2. cell culture Media+20 ng/ml EGF (final DMSO concentration: 0.1%)
3. cell culture Media+100 ng/ml Wnt3a (final DMSO concentration: 0.1%)
After 4 days incubation at 37° C., 5% CO2, the amount of ATP per well is quantified. The ATP concentration is proportional to the cell number. ATP is quantified by using the Promega CellTiterGlo® kit. The CellTiterGlo® reagents contain a cell lysis buffer, a thermo stable luciferase (UltraGlo™ recombinant luciferase), magnesium and luciferin. Luciferin reacts with ATP producing oxyluciferin, AMP and light. The luminescence signal is proportional to the ATP content.
The value of negative (neutral) control is determined for each assay plate by taking the average of 16 negative control wells. The neurogenic compound response is calculated for each compound as (compound/Negative Control)*100. The values of EC150 from the dose response curve are determined for each test compound. The EC150 is the compound concentration at which 150% activity of control (100%) is reached.
`COc1cc(N2CCN(Cc3cccc(C)c3)C2=O)ccc1-c1cn[nH]c1` [Example 35, 1-[3-Methoxy-4-(1H-pyrazol-4-yl)phenyl]-3-(m-tolylmethyl)imidazolidin-2-one] registered an EC (150% of control) of 2.65 µM.
The compound `COc1cc(N2CCC(Cc3cccc(Cl)c3)C2=O)ccc1-c1cn[nH]c1` (stereo not shown) [Example 36, 3-[(3-Chlorophenyl)methyl]-1-[3-methoxy-4-(1H-pyrazol-4-yl)phenyl]pyrrolidin-2-one] came in with an EC (150% of control) of 1.65 µM.
`COc1cc(N2CCC(Cc3ccccc3Cl)C2=O)ccc1-c1cn[nH]c1` (stereo not shown) [Example 37, 3-[(2-Chlorophenyl)methyl]-1-[3-methoxy-4-(1H-pyrazol-4-yl)phenyl]pyrrolidin-2-one] registered an EC (150% of control) of 1.13 µM.
`COc1cc(N2CCC(c3cccc(Cl)c3)C2=O)ccc1-c1cnco1` (stereo not shown) [Example 38, 3-(3-Chlorophenyl)-1-[3-methoxy-4-(1,3-oxazol-5-yl)phenyl]pyrrolidin-2-one] registered an EC (150% of control) of 1.35 µM.
The figure for `COc1cccc(CN2CCN(c3ccc(-c4cn[nH]c4)cc3OC)C2=O)c1` [Example 39, 1-[(3-Methoxyphenyl)methyl]-3-[2-methoxy-4-(1H-pyrazol-4-yl)phenyl]imidazolidin-2-one] is 0.393 µM; for `COc1cccc(CC2CCN(c3ccc(-c4cn[nH]c4)c(OC)c3)C2=O)c1` (stereo not shown) [Example 40, 3-[(3-Methoxyphenyl)methyl]-1-[3-methoxy-4-(1H-pyrazol-4-yl)phenyl]pyrrolidin-2-one] it is 0.334 µM; for `COc1cc(N2CCC(c3ccccc3OC)C2=O)ccc1-c1cnco1` (stereo not shown) [Example 41, 1-[3-Methoxy-4-(1,3-oxazol-5-yl)phenyl]-3-(2-methoxyphenyl)pyrrolidin-2-one] it is 2.91 µM.
Take `COc1ccccc1CN1CCN(c2ccc(-c3cn[nH]c3)c(OC)c2)C1=O` [Example 42, 1-[(2-Methoxyphenyl)methyl]-3-[3-methoxy-4-(1H-pyrazol-4-yl)phenyl]imidazolidin-2-one]: the EC (150% of control) was 0.308 µM.
As for `COc1cc(N2CCN(CCc3ccccc3)C2=O)ccc1-c1cn[nH]c1` [Example 43, 1-[3-Methoxy-4-(1H-pyrazol-4-yl)phenyl]-3-(2-phenylethyl)imidazolidin-2-one], the EC (150% of control) is 0.309 µM.
Take `COc1ccccc1CCN1CCN(c2ccc(-c3cn[nH]c3)c(OC)c2)C1=O` [Example 44, 1-[2-(2-Methoxyphenyl)ethyl]-3-[3-methoxy-4-(1H-pyrazol-4-yl)phenyl]imidazolidin-2-one]: the EC (150% of control) came to 1.98 µM.
`COc1cc(N2CCN(CCc3ccccc3Cl)C2=O)ccc1-c1cn[nH]c1` [Example 45, 1-[2-(2-Chlorophenyl)ethyl]-3-[3-methoxy-4-(1H-pyrazol-4-yl)phenyl]imidazolidin-2-one] gave an EC (150% of control) of 0.136 µM.
Under `COc1cccc(CN2CCN(c3ccc(-c4cn[nH]c4)cc3Cl)C2=O)c1` [Example 46, 1-[2-Chloro-4-(1H-pyrazol-4-yl)phenyl]-3-[(3-methoxyphenyl)methyl]imidazolidin-2-one] stands 1.83 µM; under `COc1cc(N2CCN(Cc3ccc(F)cc3)C2=O)ccc1-c1cn[nH]c1` [Example 47, 1-[(4-Fluorophenyl)methyl]-3-[3-methoxy-4-(1H-pyrazol-4-yl)phenyl]imidazolidin-2-one], 0.768 µM.
In the case of `COc1cc(N2CCN(Cc3cccnc3)C2=O)ccc1-c1cn[nH]c1` [Example 48, 1-[3-Methoxy-4-(1H-pyrazol-4-yl)phenyl]-3-(3-pyridylmethyl)imidazolidin-2-one], the EC (150% of control) was found to be 0.119 µM.
Regarding `COc1cc(N2CCN(CCc3cccc(Cl)c3)C2=O)ccc1-c1cn[nH]c1` [Example 49, 1-[2-(3-Chlorophenyl)ethyl]-3-[3-methoxy-4-(1H-pyrazol-4-yl)phenyl]imidazolidin-2-one], the EC (150% of control) was found to be 1.73 µM.
In the case of `COc1cc(N2CCN(CCc3ccc(Cl)cc3)C2=O)ccc1-c1cn[nH]c1` [Example 50, 1-[2-(4-Chlorophenyl)ethyl]-3-[3-methoxy-4-(1H-pyrazol-4-yl)phenyl]imidazolidin-2-one], the EC (150% of control) amounted to 2.01 µM.
Take `CCC(c1ccccc1)N1CCN(c2ccc(-c3cn[nH]c3)c(OC)c2)C1=O` (stereo not shown) [Example 51, 1-[3-Methoxy-4-(1H-pyrazol-4-yl)phenyl]-3-(1-phenylpropyl)imidazolidin-2-one]: the EC (150% of control) was 0.594 µM.
Consider `COc1cccc(C2CCN(c3ccc(-c4cnco4)cc3)C2=O)c1` (stereo not shown) [Example 52, 3-(3-Methoxyphenyl)-1-[4-(1,3-oxazol-5-yl)phenyl]pyrrolidin-2-one], for which the EC (150% of control) was found to be 0.517 µM.
Regarding `O=C1C(c2ccccc2)CCN1c1ccc(-c2cnco2)cc1` (stereo not shown) [Example 53, 1-[4-(1,3-Oxazol-5-yl)phenyl]-3-phenylpyrrolidin-2-one], the EC (150% of control) was 2.21 µM.
Under `COc1cc(N2CCN(Cc3ccccc3C(F)(F)F)C2=O)ccc1-c1ccncc1` [Example 54, 1-[3-Methoxy-4-(4-pyridyl)phenyl]-3-[[2-(trifluoromethyl)phenyl]methyl]imidazolidin-2-one] stands 0.0351 µM.
Under `COc1cc(N2CCN(Cc3ccncc3)C2=O)ccc1-c1ccncc1` [Example 55, 1-[3-Methoxy-4-(4-pyridyl)phenyl]-3-(4-pyridylmethyl)imidazolidin-2-one] stands 0.377 µM.
The figure for `COc1cc(N2CCC(c3cccc(C(F)(F)F)c3)C2=O)ccc1-c1cnco1` (stereo not shown) [Example 56, 1-[3-Methoxy-4-(1,3-oxazol-5-yl)phenyl]-3-[3-(trifluoromethyl)phenyl]pyrrolidin-2-one] is 1.86 µM; for `O=C1C(c2ccccc2F)CCN1c1ccc(-c2cnco2)cc1` (stereo not shown) [Example 57, 3-(2-Fluorophenyl)-1-[4-(1,3-oxazol-5-yl)phenyl]pyrrolidin-2-one] it is 0.525 µM.
`COc1cc(N2CCC(c3ccccc3F)C2=O)ccc1-c1cnco1` (stereo not shown) [Example 58, 3-(2-Fluorophenyl)-1-[3-methoxy-4-(1,3-oxazol-5-yl)phenyl]pyrrolidin-2-one] showed an EC (150% of control) of 0.23 µM.
In the case of `COc1cccc(CN2CCN(c3ccc(-c4cnco4)cc3)C2=O)c1` [Example 59, 1-[(3-Methoxyphenyl)methyl]-3-[4-(1,3-oxazol-5-yl)phenyl]imidazolidin-2-one], the EC (150% of control) came to 0.122 µM.
Compound `O=C1C(c2cccc(F)c2)CCN1c1ccc(-c2cnco2)cc1` (stereo not shown) [Example 60, 3-(3-Fluorophenyl)-1-[4-(1,3-oxazol-5-yl)phenyl]pyrrolidin-2-one] registered an EC (150% of control) of 0.605 µM.
In the case of `COc1cc(N2CCC(c3cccc(F)c3)C2=O)ccc1-c1cnco1` (stereo not shown) [Example 61, 3-(3-Fluorophenyl)-1-[3-methoxy-4-(1,3-oxazol-5-yl)phenyl]pyrrolidin-2-one], the EC (150% of control) was 0.262 µM.
For the compound `COc1cc(N2CCN(Cc3ccncc3)C2=O)ccc1-c1cn[nH]c1` [Example 62, 1-[3-Methoxy-4-(1H-pyrazol-4-yl)phenyl]-3-(4-pyridylmethyl)imidazolidin-2-one], the EC (150% of control) was 0.042 µM.
In turn, `COc1cc(N2CCN(Cc3ccccn3)C2=O)ccc1-c1cn[nH]c1` [Example 63, 1-[3-Methoxy-4-(1H-pyrazol-4-yl)phenyl]-3-(2-pyridylmethyl)imidazolidin-2-one] returned an EC (150% of control) of 0.255 µM.
Turning to `COc1cc(N2CCN(CC(C)c3ccccc3)C2=O)ccc1-c1cn[nH]c1` (stereo not shown) [Example 64, 1-[3-Methoxy-4-(1H-pyrazol-4-yl)phenyl]-3-(2-phenylpropyl)imidazolidin-2-one], the EC (150% of control) was found to be 0.387 µM.
`COc1cc(N2CCN(Cc3cccc(C)c3)C2=O)ccc1-c1ccncc1` [Example 65, 1-[3-Methoxy-4-(4-pyridyl)phenyl]-3-(m-tolylmethyl)imidazolidin-2-one] showed an EC (150% of control) of 0.0298 µM.
For `COc1cc(N2CCN(Cc3cccnc3)C2=O)ccc1-c1ccncc1` [Example 66, 1-[3-Methoxy-4-(4-pyridyl)phenyl]-3-(3-pyridylmethyl)imidazolidin-2-one], the EC (150% of control) was 0.4 µM.
For the compound `COc1ccccc1CN1CCN(c2ccc(-c3cnco3)c(OC)c2)C1=O` [Example 67, 1-[3-Methoxy-4-(1,3-oxazol-5-yl)phenyl]-3-[(2-methoxyphenyl)methyl]imidazolidin-2-one], the EC (150% of control) stood at 0.702 µM.
`COc1cccc(CN2CCN(c3ccc(-c4cnco4)c(OC)c3)C2=O)c1` [Example 68, 1-[3-Methoxy-4-(1,3-oxazol-5-yl)phenyl]-3-[(3-methoxyphenyl)methyl]imidazolidin-2-one] displayed an EC (150% of control) of 0.316 µM.
